The values below come from patent publication US7981912B2, “Indole acetic acids exhibiting CRTH2 receptor antagonism and uses thereof” (Wyeth LLC, priority 2004, dated 2011).

This assay addresses T1, human CRTH2 (Homo sapiens, UniProt Q9Y5Y4).
T1 sequence (Q9Y5Y4 1-395): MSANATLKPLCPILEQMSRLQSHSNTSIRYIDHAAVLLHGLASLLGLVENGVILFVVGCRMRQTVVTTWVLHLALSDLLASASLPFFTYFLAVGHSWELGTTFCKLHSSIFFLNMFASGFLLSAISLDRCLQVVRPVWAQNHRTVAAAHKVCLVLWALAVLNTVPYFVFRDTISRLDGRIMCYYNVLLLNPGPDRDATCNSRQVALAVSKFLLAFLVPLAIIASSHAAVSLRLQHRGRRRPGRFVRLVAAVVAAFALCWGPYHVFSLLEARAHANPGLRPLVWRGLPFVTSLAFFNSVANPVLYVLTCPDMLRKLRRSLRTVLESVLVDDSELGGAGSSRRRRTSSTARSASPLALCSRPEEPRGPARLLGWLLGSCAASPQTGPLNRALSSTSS
In words: CRTH-2 binding assay (scintillation proximity assay, inhibition of 3H-PGD2 binding). Set-up: expressed in transfected cells; host or cells: HEK 293EBNA-hCRTH2 (membrane preparation). As to conditions: inhibition of 3H-PGD2 (3.6 nM) binding to HEK 293EBNA-hCRTH2 membranes; Ki calculated from IC50. Here is the method:
A CRTH2 binding assay was developed to measure the ability of compounds to inhibit the binding of PGD2 to human CRTH2 using a scintillation proximity assay.
Membranes containing hCRTH2 receptors were prepared from HEK 293EBNA-hCRTH2 cells (a HEK 293EBNA cell line stably expressing human CRTH2). The cells were grown to confluency, harvested and washed with PBS. The cells were resuspended in 10 mM Hepes pH 7.4, 1 mM EDTA and protease inhibitors and incubated for 30 min on ice. The cells were homogenized and centrifuged for 10 min at 1000×g. The supernate was centrifuged for 30 min at 100,000×g and the membrane pellet was then resusupended in 10 mM Hepes pH 7.4 and 1 mM EDTA. The protein concentration of the membrane preparation was determined by Bradford assay (Bio-Rad).
The ability of compounds to inhibit the interaction of PGD2 to human CRTH2 was determined at seven compound concentrations. Compounds were serially diluted in DMSO then diluted into CRTH2 buffer without glycerol (10 mM Hepes pH 7.4, 1 mM EDTA, 10 mM MnCl2) to six times the final desired concentration. 20 μL of the diluted compounds were transferred into non-surface binding 96 well plates (Corning). Each concentration was done in triplicate. In addition to test compounds, each plate contained 12 control wells. Six of these wells contained 20 μL of CRTH2 buffer without glycerol. These wells were used to measure total binding. Six wells contained 20 μL of CRTH2 buffer without glycerol plus 1.5 mM indomethacin. These wells were used to measure non-specific binding. Next, HEK 293EBNA-hCRTH2 membranes were resuspended in CRTH2 buffer with glycerol (10 mM Hepes pH 7.4, 1 mM EDTA, 10 mM MnCl2, 25% glycerol) so that the final concentration was approximately 20 μg protein/100 μL. Polylysine coated yttrium silicate SPA beads (Amershamn) were added to the membrane mix to a concentration of 0.4 mg/100 μL and finally ^3H-PGD2 was added to the membrane/SPA bead mix to 3.6 nM. 100 μL of the membrane/SPA bead/^3H-PGD2 mix was added to each well of the non-surface binding plates containing the diluted compound plus controls. The plates were incubated for 2 hours at room temperature with shaking and then the plates were counted on a Microbeta scintillation counter (Perkin Elmer) for 1 min per well.
IC50 values were determined from the experimental results by nonlinear regression using Prism 4.0 software. The IC50 values were then used in conjunction with the […] for hCRTH2 and the ^3H-PGD2 concentration used in the experiment to calculate the Ki for each compound.

What is called Ki is the equilibrium dissociation constant of an inhibitor or competing ligand from its target.

In the case of `Cc1c(C2c3ccc(F)cc3S(=O)(=O)N2Cc2cccc(F)c2)c2ccccc2n1CC(=O)O` (stereo not shown) [Example 63, {3-[6-Fluoro-2-(3-fluoro-benzyl)-1,1-dioxo-2,3-dihydro-1H-1λ^6benzo[d]isothiazol-3-yl]-2-methyl-indol-1-yl}-acetic acid], the Ki is < 1000 nM.
The value for `COc1ccc2c(c1)c(C1c3ccccc3S(=O)(=O)N1Cc1ccc(C#N)cc1)cn2CC(=O)O` (stereo not shown) [Example 57, {3-[2-(4-Cyano-benzyl)-1,1-dioxo-2,3-dihydro-1H-1λ^6-benzo[d]isothiazol-3-yl]-5-methoxy-indol-1-yl}-acetic acid] was < 10000 nM; that for `Cc1c(C2(C)c3ccccc3S(=O)(=O)N2Cc2cccc(F)c2)c2ccccc2n1CC(=O)O` (stereo not shown) [Example 66, {3-[2-(3-Fluoro-benzyl)-3-methyl-1,1-dioxo-2,3-dihydro-1H-1λ^6-benzo[d]isothiazol-3-yl]-2-methyl-indol-1-yl}-acetic acid] was < 1000 nM; that for `Cc1c(C2c3ccccc3S(=O)(=O)N2CC(=O)Nc2ccc(F)cc2)c2ccccc2n1CC(=O)O` (stereo not shown) [Example 37, (3-{2-[(4-Fluoro-phenylcarbamoyl)-methyl]-1,1-dioxo-2,3-dihydro-1H-1λ^6-benzo[d]isothiazol-3-yl}-2-methyl-indol-1-yl)-acetic acid] was < 10000 nM.
The value for `CN1N=C(c2cn(CC(=O)O)c3ccccc23)c2ccccc2S1(=O)=O` [Example 18, [3-(2-Methyl-1,1-dioxo-1,2-dihydro-1λ6-benzo[e][1,2,3]thiadiazin-4-yl)-indol-1-yl]-acetic acid] was < 10000 nM; that for `Cc1c(C2c3ccc(F)cc3S(=O)(=O)N2CCc2ccccc2)c2ccccc2n1CC(=O)O` (stereo not shown) [Example 64, [3-(6-Fluoro-1,1-dioxo-2-phenethyl-2,3-dihydro-1H-1λ^6-benzo[d]isothiazol-3-yl)-2-methyl-indol-1-yl]-acetic acid] was < 100 nM; that for `COc1ccc2c(c1)c(C1c3ccccc3S(=O)(=O)N1C(C)Cc1ccccc1)cn2CC(=O)O` (stereo not shown) [Example 56, {5-Methoxy-3-[2-(1-methyl-2-phenyl-ethyl)-1,1-dioxo-2,3-dihydro-1H-1λ^6-benzo[d]isothiazol-3-yl]-indol-1-yl}-acetic acid] was < 10000 nM.
Regarding `Cc1c(C2=NN(CCOc3ccc(Cl)cc3)S(=O)(=O)c3ccccc32)c2cc(F)ccc2n1CC(=O)O` [Example 89, (3-{2-[2-(4-Chloro-phenoxy)-ethyl]-1,1-dioxo-1,2-dihydro-1λ^6-benzo[e][1,2,3]thiadiazin-4-yl}-5-fluoro-2-methyl-indol-1-yl)-acetic acid], the inhibition constant Ki is < 1000 nM.
The value for `Cc1c(C2=NN(CCC(C)C)S(=O)(=O)c3ccccc32)c2ccccc2n1CC(=O)O` [Example 23, {2-Methyl-3-[2-(3-methyl-butyl)-1,1-dioxo-1,2-dihydro-1λ^6-benzo[e][1,2,3]thiadiazin-4-yl]-indol-1-yl}-acetic acid] was < 100 nM; that for `Cc1c(C2=NN(Cc3ccccc3)C(=O)C3CC=CCC23)c2ccccc2n1CC(=O)O` (stereo not shown) [Example 71, [3-(3-Benzyl-4-oxo-3,4,4a,5,8,8a-hexahydro-phthalazin-1-yl)-2-methyl-indol-1-yl]-acetic acid] was < 1000 nM; that for `O=C(O)Cn1cc(C2c3ccccc3S(=O)(=O)N2Cc2cccc(Oc3ccc(F)cc3)c2)c2ccccc21` (stereo not shown) [Example 31, (3-{2-[3-(4-Fluoro-phenoxy)-benzyl]-1,1-dioxo-2,3-dihydro-1H-1λ^6benzo[d]isothiazol-3-yl}-indol-1-yl)-acetic acid] was < 1000 nM.
The value for `Cc1c(C2c3ccccc3S(=O)(=O)N2C(C)C)c2ccccc2n1CC(=O)O` (stereo not shown) [Example 47, [3-(2-Isopropyl-1,1-dioxo-2,3-dihydro-1H-1λ^6-benzo[d]isothiazol-3-yl)-2-methyl-indol-1-yl]-acetic acid] was < 1000 nM; that for `N#Cc1ccc2c(c1)c(C1NS(=O)(=O)c3ccccc31)cn2CC(=O)O` (stereo not shown) [Example 9, [5-Cyano-3-(1,1-dioxo-2,3-dihydro-1H-1λ^6-benzo[d]isothiazol-3-yl)-indol-1-yl]-acetic acid] was < 10000 nM; that for `O=C(O)Cn1cc(C2=NN(Cc3ccccc3)S(=O)(=O)c3ccccc32)c2ccccc21` [Example 17, [3-(2-Benzyl-1,1-dioxo-1,2-dihydro-1λ6-benzo[e][1,2,3]thiadiazin-4-yl)-indol-1-yl]-acetic acid] was < 1000 nM.
As for `COc1ccc2c(c1)c(C1c3ccccc3S(=O)(=O)N1Cc1ccc(F)cc1)cn2CC(=O)O` (stereo not shown) [Example 54, {3-[2-(4-Fluoro-benzyl)-1,1-dioxo-2,3-dihydro-1H-1λ^6-benzo[d]isothiazol-3-yl]-5-methoxy-indol-1-yl}-acetic acid], the Ki was < 1000 nM.
The value for `O=C(O)Cn1cc(-c2nn(Cc3ccccc3)c(=O)c3ccccc23)c2ccccc21` [Example 15, [3-(3-Benzyl-4-oxo-3,4-dihydro-phthalazin-1-yl)-indol-1-yl]-acetic acid] was < 1000 nM; that for `Cc1c(C2=NN(Cc3cccc(F)c3)S(=O)(=O)c3ccccc32)c2cc(F)ccc2n1CC(=O)O` [Example 82, {3-[2-(3-Fluoro-benzyl)-1,1-dioxo-1,2-dihydro-1λ^6-benzo[e][1,2,3]thiadiazin-4-yl]-5-fluoro-2-methyl-indol-1-yl}-acetic acid] was < 100 nM.
The value for `Cc1c(C2=NN(CCc3ccccc3)S(=O)(=O)c3ccccc32)c2cc(F)ccc2n1CC(=O)O` [Example 87, {3-[2-phenethyl-1,1-dioxo-1,2-dihydro-1λ^6-benzo[e][1,2,3]thiadiazin-4-yl]-5-fluoro-2-methyl-indol-1-yl}-acetic acid] was < 1000 nM; that for `C=CCN1C(c2c(C)n(CC(=O)O)c3ccccc23)c2ccccc2S1(=O)=O` (stereo not shown) [Example 45, [3-(2-Allyl-1,1-dioxo-2,3-dihydro-1H-1λ^6-benzo[d]isothiazol-3-yl)-2-methyl-indol-1-yl]-acetic acid] was < 1000 nM; that for `Cc1ccc2c(c1)c(C1NS(=O)(=O)c3ccccc31)c(C)n2CC(=O)O` (stereo not shown) [Example 7, [3-(1,1-Dioxo-2,3-dihydro-1H-1λ^6-benzo[d]isothiazol-3-yl)-2,5-dimethyl-indol-1-yl]-acetic acid] was < 10000 nM.
Consider `Cc1c(C2NS(=O)(=O)c3cc(F)ccc32)c2ccccc2n1CC(=O)O` (stereo not shown) [Example 13, [3-(6-Fluoro-1,1-dioxo-2,3-dihydro-1H-1λ^6-benzo[d]isothiazol-3-yl)-2-methyl-indol-1-yl]-acetic acid], for which the Ki was < 1000 nM.
With `Cc1c(C2NS(=O)(=O)c3ccccc32)c2cc(Cl)ccc2n1CC(=O)O` (stereo not shown) [Example 6, [5-Chloro-3-(1,1-dioxo-2,3-dihydro-1H-1λ^6-benzo[d]isothiazol-3-yl)-2-methyl-indol-1-yl]-acetic acid], the Ki was < 1000 nM.
Regarding `CCCCN1N=C(c2c(C)n(CC(=O)O)c3ccccc23)[C@H]2CC=CC[C@H]2C1=O` (stereo in doubt) [Example 70, [3-(3-Butyl-4-oxo-3,4,4a,5,8,8a-hexahydro-phthalazin-1-yl)-2-methyl-indol-1-yl]-acetic acid], the Ki was < 1000 nM.
The value for `O=C(O)Cn1cc(C2c3ccccc3S(=O)(=O)N2Cc2ccc3ccccc3n2)c2ccccc21` (stereo not shown) [Example 30, [3-(1,1-Dioxo-2-quinolin-2-ylmethyl-2,3-dihydro-1H-1λ^6-benzo[d]isothiazol-3-yl)-indol-1-yl]-acetic acid] was < 10000 nM; that for `C=CCN1C(c2c(C)n(CC(=O)O)c3ccc(Cl)cc23)c2ccccc2S1(=O)=O` (stereo not shown) [Example 58, [3-(2-Allyl-1,1-dioxo-2,3-dihydro-1H-1λ^6-benzo[d]isothiazol-3-yl)-5-chloro-2-methyl-indol-1-yl]-acetic acid] was < 1000 nM.
